Test results: patent publication US10092582B2, “Cell mobilization agent containing lysophospholipid with retinoic acid introduced” (NOF CORPORATION, priority 2014, dated 2018)

Experiments:
[1] = test system: human acute monocytic leukaemia cell line (THP-1); test: Monocyte mobilization effect: THP-1 cell migration rate in Transwell; type: cell-based; details: 3 hr; for cell migration rate (monocyte mobilization effect) compared to the control: 10 nM, FIG. 1, Ret-LysoPC of Example 1-2, Ret-PC of Comparative Example 1
Method: A cell suspension of human acute monocytic leukaemia cell line (hereinafter to be referred to as “THP-1”) (manufactured by ATCC) was centrifuged, the supernatant was discarded, 0.1% bovine serum albumin (fatty acid-free, manufactured by SIGMA ALDRICH)-containing RPMI-1640 (manufactured by Life Technologies) was added to give a dispersion. It was centrifuged again, the supernatant was discarded to give cell pellets. 0.1% Bovine serum albumin-containing RPMI-1640 was added to adjust the cell density to 1×10^6 cells/ml. The cell suspension (100 μl/well) was added to Transwell (manufactured by Corning Incorporated, φ6.5 mm, pore size φ8.0 μm). The cells were incubated at 37° C., 5% CO2 for 30 min, and a measurement solution (all-trans retinoic acid (manufactured by Tokyo Chemical Industry Co., Ltd.) (hereinafter to be referred to as “RA”), Ret-PC of Comparative Example 1 or Ret-LysoPC of Example 1-2 dissolved in 0.1% bovine serum albumin-containing RPMI-1640 to 10 nM, and 0.1% bovine serum albumin-containing RPMI-1640 alone) was placed in the lower part of the multiple well plate (600 μl/well). After incubation at 37° C., 5% CO2 for 3 hr, the cell suspension in the multiple well plate was collected, cell density was measured by a hemacytometer and the cell migration rate was determined. The cell migration rate was defined as follows. cell migration rate (%)=(number of cells in multiple well plate)/(number of cells added to Transwell)
A cell suspension of THP-1 was centrifuged, the supernatant was discarded, 0.1% bovine serum-containing RPMI-1640 was added to give a dispersion. It was centrifuged again, the supernatant was discarded to give cell pellets. 0.1% Bovine serum albumin-containing RPMI-1640 was added to adjust the cell density to 1×10^6 cells/ml. The cell suspension (100 μl/well) was added to Transwell (manufactured by Corning Incorporated, φ6.5 mm, pore size φ8.0 μm). The cells were incubated at 37° C., 5% CO2 for 30 min, and a measurement solution (Ret-LysoPC of Examples 1-1 and 1-2 dissolved in 0.1% bovine serum albumin-containing RPMI-1640 to 10 nM, and 0.1% bovine serum albumin-containing RPMI-1640 alone) was placed in the lower part of the multiple well plate (600 μl/well). After incubation at 37° C., 5% CO2 for 3 hr, the cell suspension in the multiple well plate was collected, cell density was measured by a hemacytometer and the cell migration rate was determined.
Using human acute monocytic leukaemia cell line (THP-1) (manufactured by ATCC), a monocyte migration effect of each sample was evaluated. A cell suspension of THP-1 was centrifuged, the supernatant was discarded, 0.1% bovine serum-containing RPMI-1640 was added to give a dispersion. It was centrifuged again, the supernatant was discarded to give cell pellets. 0.1% Bovine serum albumin-containing RPMI-1640 was added to adjust the cell density to 1×10^6 cells/ml. The cell suspension (100 μl/well) was added to Transwell (manufactured by Corning Incorporated, φ6.5 mm, pore size φ8.0 μm). The cells were incubated at 37° C., 5% CO2 for 30 min, and a measurement solution (C18:0-LysoPC (COATSOME MC-80H; manufactured by NOF CORPORATION), Ret-LysoPC of Example 2 or S1P (manufactured by Toronto Research Chemicals) dissolved in 0.1% bovine serum albumin-containing RPMI-1640, and 0.1% bovine serum albumin-containing RPMI-1640 alone) was placed in the lower part of the multiple well plate ([…]). After incubation at 37° C., 5% CO2 for 3 hr, the cell suspension in the multiple well plate was collected, cell density was measured by a hemacytometer and the cell migration rate was determined.

[2] = test system: Human bone marrow-derived mesenchymal stem cell line (UE7T-13); test: Mesenchymal stem cell mobilization effect: UE7T-13 cell migration ratio in Transwell; type: cell-based; details: 4 hr
Method: Human bone marrow-derived mesenchymal stem cell line (UE7T-13) (manufactured by National Institute of Biomedical Innovation JCRB Cell Bank) was previously cultured in serum-free DMEM (manufactured by SIGMA ALDRICH) for 24 hr, and 0.25% trypsin/1 mM EDTA solution (manufactured by SIGMA ALDRICH) was added to give a dispersion. 10% Serum-containing DMEM (Powered by 10 medium; manufactured by GlycoTechnica Ltd.) was added, the cell suspension was centrifuged, the supernatant was discarded, 0.1% bovine serum albumin (fatty acid-free, manufactured by SIGMA ALDRICH)-containing DMEM (manufactured by SIGMA ALDRICH) was added to give a dispersion. It was centrifuged again, the supernatant was discarded to give cell pellets. 0.1% Bovine serum albumin-containing DMEM was added to adjust the cell density to 4×10^5 cells/mi. The cell suspension (100 μl/well) was added to Transwell (manufactured by Corning Incorporated, φ6.5 mm, pore size φ8.0 μm). The cells were incubated at 37° C., 5% CO2 for 30 min, and a measurement solution (Ret-LysoPC of Example 1-2 dissolved in 0.1% bovine serum albumin-containing DMEM to 10 nM, or 0.1% bovine serum albumin-containing DMEM alone) was placed in the lower part of the multiple well plate (600 μl/well). After incubation at 37° C., 5% CO2 for 4 hr, the supernatant in the insert was removed. The cells on the upper membrane side were removed, the cells on the lower membrane side were immobilized with 4% para-formaldehyde solution, and stained with crystalviolet solution. They were washed with water, dried, and the number of cells per one field was measured by microscopic observation. The cell migration ratio was defined as follows. cell migration ratio=(number of cell per one membrane field when each measurement solution was used)/(number of cells per one membrane field of control)
The control refers to 0.1% bovine serum albumin-containing DMEM with no addition.
Human bone marrow-derived mesenchymal stem cell line (UE7T-13) (manufactured by National Institute of Biomedical Innovation JCRB Cell Bank) was previously cultured in serum-free DMEM (manufactured by SIGMA ALDRICH) for 24 hr, and 0.25% trypsin/1 mM EDTA solution (manufactured by SIGMA ALDRICH) was added to give a dispersion. 10% Serum-containing DMEM (Powered by 10 medium; manufactured by GlycoTechnica Ltd.) was added, the cell suspension was centrifuged, the supernatant was discarded, 0.1% bovine serum albumin (fatty acid-free, manufactured by SIGMA ALDRICH)-containing DMEM (manufactured by SIGMA ALDRICH) was added to give a dispersion. It was centrifuged again, the supernatant was discarded to give cell pellets. […] They were washed with water, dried, and the number of cells per one field was measured by microscopic observation. […]

[3] = test system: monocytes and macrophages; details: background art, non-patent documents 2, 3; cited from earlier work
[4] = 100 nM, FIG. 6, FIG. 7, Ret-LysoPC of Example 2

CC1=C(/C=C/C(C)=C/C=C/C(C)=C/C(=O)O)C(C)(C)CCC1 [RA, all-trans retinoic acid]
cell migration rate (monocyte mobilization effect) compared to the control [1]: did not show cell migration

CCCCCCCCCCCCC/C=C/[C@@H](O)[C@@H](N)COP(=O)(O)O [Example S1P, sphingosine-1-phosphoric acid]
mesenchymal stem cell mobilization effect (cell migration ratio) ([2]; 10 nM, FIG. 8): did not show a significant (p<0.05) mesenchymal stem cell mobilization effect
mesenchymal stem cell mobilization effect (cell migration ratio) ([2]; 100 nM, FIG. 8): did not show a significant (p<0.05) mesenchymal stem cell mobilization effect
monocyte mobilization effect (cell migration rate) ([1]; 1 nM, FIG. 7): did not show a significant (p<0.05) monocyte mobilization effect
monocyte mobilization effect (cell migration rate) [1, 4]: did not show a significant (p<0.05) monocyte mobilization effect
concentration at which mobilization of monocytes and macrophages is suppressed (acting on receptor 2) [3]: ≥ 100 nM
effective concentration range for mobilization of monocytes and macrophages [3]: around 10 nM

CCCCCCCCCCCCCCCCCC(=O)OC[C@@H](O)COP(=O)([O-])OCC[N+](C)(C)C [C18:0-LysoPC, 1-stearoyl-lysophosphocholine]
monocyte mobilization effect (cell migration rate) [1, 4]: absent
concentration at which a monocyte/macrophage mobilizing effect is exhibited [3]: ≥ 10 µM

CC1=C(/C=C/C(C)=C/C=C/C(C)=C/C(=O)OCC(O)COP(=O)([O-])OCC[N+](C)(C)C)C(C)(C)CCC1 (stereo not drawn) [Ret-LysoPC, 1-retinoyl-sn-glycero-3-phosphocholine]
cell migration ratio (mesenchymal stem cell mobilization effect) compared to the control ([2]; 10 nM, FIG. 3, Ret-LysoPC of Example 1-2): significant cell migration
mesenchymal stem cell mobilization effect (cell migration ratio) ([2]; any of 1-100 nM, FIG. 8, Ret-LysoPC of Example 1-2): showed a significant mesenchymal stem cell mobilization effect
cell migration rate (monocyte mobilization effect) compared to the control [1]: significant (P<0.05) cell migration
monocyte mobilization effect (cell migration rate) [1, 4]: present
monocyte mobilization effect (cell migration rate) ([1]; any of 1-100 nM, FIG. 7, Ret-LysoPC of Example 2): showed a significant monocyte mobilization effect

CC1=C(/C=C/C(C)=C/C=C/C(C)=C/C(=O)OCC(COP(=O)([O-])OCC[N+](C)(C)C)OC(=O)/C=C(C)/C=C/C=C(C)/C=C/C2=C(C)CCCC2(C)C)C(C)(C)CCC1 (stereo not drawn) [Ret-PC, diretinoyl phosphocholine]
cell migration rate (monocyte mobilization effect) compared to the control [1]: did not show cell migration
